The supplement of paper PMC10307832

Key:
Test in all cases: relative viability (nuclei count vs DMSO), 5 days (fraction); higher = more cells survive
Avagacestat + Luminespib = compound: NC(=O)[C@@H](CCC(F)(F)F)N(Cc1ccc(-c2ncon2)cc1F)S(=O)(=O)c1ccc(Cl)cc1 [Avagacestat] + CCNC(=O)c1noc(-c2cc(C(C)C)c(O)cc2O)c1-c1ccc(CN2CCOCC2)cc1 [Luminespib] (partner 0.01 µM)
Procedure, shortened: (§1)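 Relative viability divides the nuclei count in treated wells by that in vehicle wells. Lung cancer cell lines were seeded in 1536-well plates, dosed by pin tool the next day, and fixed and stained after 5 days in one step with final 0.05% Triton X-100, 1% formaldehyde and 1 ug/ml Hoechst. Dosing was a single drug or a fixed anchor-drug dose plus five library-drug doses (not always all listed) in √10 steps, and values are medians of duplicate plates imaged at 4×.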

Avagacestat + Decitabine = compound: NC(=O)[C@@H](CCC(F)(F)F)N(Cc1ccc(-c2ncon2)cc1F)S(=O)(=O)c1ccc(Cl)cc1 [Avagacestat] + Nc1ncn([C@H]2C[C@H](O)[C@@H](CO)O2)c(=O)n1 [Decitabine] (partner 2 µM)
Procedure, shortened: as §1

Avagacestat + Dasatinib = compound: NC(=O)[C@@H](CCC(F)(F)F)N(Cc1ccc(-c2ncon2)cc1F)S(=O)(=O)c1ccc(Cl)cc1 [Avagacestat] + Cc1nc(Nc2ncc(C(=O)Nc3c(C)cccc3Cl)s2)cc(N2CCN(CCO)CC2)n1 [Dasatinib] (partner 0.075 µM)
Procedure, shortened: as §1

Avagacestat + Foretinib = compound: NC(=O)[C@@H](CCC(F)(F)F)N(Cc1ccc(-c2ncon2)cc1F)S(=O)(=O)c1ccc(Cl)cc1 [Avagacestat] + COc1cc2c(Oc3ccc(NC(=O)C4(C(=O)Nc5ccc(F)cc5)CC4)cc3F)ccnc2cc1OCCCN1CCOCC1 [Foretinib] (partner 0.25 µM)
Procedure, shortened: as §1

Cell Line	relative viability (Avagacestat + Luminespib; first compound 0.08 µM)	relative viability (Avagacestat + Luminespib; first compound 0.253 µM)	relative viability (Avagacestat + Luminespib; first compound 0.8 µM)	relative viability (Avagacestat + Luminespib; first compound 2.53 µM)	relative viability (Avagacestat + Luminespib; first compound 8 µM)	relative viability (Avagacestat + Decitabine; first compound 0.08 µM)	relative viability (Avagacestat + Decitabine; first compound 0.253 µM)	relative viability (Avagacestat + Decitabine; first compound 0.8 µM)	relative viability (Avagacestat + Decitabine; first compound 2.53 µM)	relative viability (Avagacestat + Decitabine; first compound 8 µM)	relative viability (Avagacestat + Dasatinib; first compound 0.08 µM)	relative viability (Avagacestat + Dasatinib; first compound 0.253 µM)	relative viability (Avagacestat + Dasatinib; first compound 0.8 µM)	relative viability (Avagacestat + Dasatinib; first compound 2.53 µM)	relative viability (Avagacestat + Dasatinib; first compound 8 µM)	relative viability (Avagacestat + Foretinib; first compound 0.08 µM)	relative viability (Avagacestat + Foretinib; first compound 0.253 µM)	relative viability (Avagacestat + Foretinib; first compound 0.8 µM)	relative viability (Avagacestat + Foretinib; first compound 2.53 µM)	relative viability (Avagacestat + Foretinib; first compound 8 µM)
NCI-H1651	1.09	0.931	0.726	0.719	0.852	0.636	0.665	0.734	0.611	0.607	0.477	0.426	0.454	0.38	0.342	0.899	0.884	0.895	0.847	0.596
NCI-H1666	1.29	1.21	1.12	1.07	1.13	0.892	0.858	0.953	0.81	0.882	0.819	0.739	0.876	0.783	0.653	1.32	1.15	1.16	1.07	1.07
NCI-H1734	0.219	0.179	0.212	0.202	0.175	0.608	0.499	0.482	0.482	0.491	0.545	0.542	0.48	0.471	0.432	0.932	0.934	0.839	0.771	0.835
NCI-H1755	0.72	0.55	0.418	0.697	0.386	0.732	0.665	0.755	0.718	0.72	0.445	0.357	0.234	0.389	0.334	0.951	0.921	1	0.847	0.849
NCI-H1793	0.145	0.176	0.157	0.198	0.172	0.504	0.532	0.508	0.472	0.496	0.445	0.383	0.319	0.282	0.337	0.686	0.693	0.854	0.473	0.619
NCI-H1915	1.07	1.18	1.01	0.745	0.669	0.259	0.266	0.283	0.237	0.265	0.305	0.308	0.279	0.313	0.341	1.21	1.26	1.21	1.06	1.03
NCI-H1944	0.731	0.941	0.591	0.515	0.599	0.452	0.475	0.402	0.406	0.428	0.199	0.201	0.227	0.202	0.222	0.895	1.06	0.795	0.644	0.779
NCI-H1975	0.216	0.164	0.207	0.182	0.154	0.371	0.355	0.425	0.341	0.412	0.395	0.478	0.386	0.402	0.384	1.1	1.16	0.988	1.02	1.01
NCI-H1993	0.93	0.91	1.04	0.752	0.842	0.618	0.583	0.618	0.611	0.564	0.53	0.549	0.586	0.491	0.538	0.924	0.885	0.973	0.763	0.787
NCI-H2009	1.13	1.03	1.2	1.04	0.901	0.412	0.384	0.386	0.332	0.395	0.323	0.274	0.282	0.257	0.229	1.31	1.39	1.24	1.24	1.21
NCI-H2023	1.06	0.862	0.952	0.514	0.762	0.255	0.257	0.288	0.221	0.218	0.564	0.643	0.563	0.419	0.422	0.857	0.892	1	0.847	0.65
NCI-H2085	0.438	0.481	0.729	0.414	0.472	0.531	0.609	0.639	0.572	0.585	0.201	0.202	0.229	0.222	0.252	1.25	1.09	1.06	1.11	0.911
NCI-H2087	0.161	0.173	0.276	0.264	0.143	0.3	0.279	0.374	0.25	0.257	0.893	1.18	0.994	0.916	0.686	1.11	1.39	1.09	1.09	1.23
NCI-H2126	0.893	0.939	0.978	0.852	0.891	0.615	0.661	0.577	0.575	0.611	0.588	0.587	0.606	0.467	0.582	1.53	1.21	1.34	1.06	1.02
NCI-H2170	0.721	0.588	0.817	0.399	0.754	0.462	0.437	0.481	0.495	0.501	0.622	0.535	0.647	0.48	0.52	1.02	1.12	0.988	0.899	1.01
NCI-H2342	0.742	0.703	0.648	0.709	0.663	0.738	0.686	0.706	0.695	0.742	0.344	0.341	0.334	0.31	0.302	1.22	1.05	0.924	1.02	0.939
NCI-H2347	0.633	0.379	0.608	0.512	0.311	0.661	0.654	0.631	0.553	0.6	0.292	0.292	0.369	0.297	0.331	1.22	1.07	0.931	0.842	0.977
NCI-H2405	0.638	0.856	0.58	0.665	0.466	0.758	0.703	0.692	0.673	0.684	0.186	0.204	0.217	0.229	0.226	1.04	1.03	0.998	0.938	0.927
NCI-H3122	0.0934	0.101	0.074	0.0983	0.11	0.513	0.428	0.445	0.402	0.37	0.944	0.759	0.843	0.815	0.774	0.945	1	0.992	0.964	0.991
PC-3 [JPC-3]	0.677	0.81	0.785	0.671	0.628	0.857	0.808	0.824	0.789	0.87	1.17	1.14	1.16	0.888	0.843	1.19	1.09	1.15	1.02	1.01
PC-14	0.151	0.162	0.162	–	0.176	0.219	0.244	0.218	0.272	0.244	0.214	0.182	0.169	0.13	0.207	1.1	1.08	1.1	0.956	0.817
RERF-LC-KJ	1.72	1.39	1.36	1.35	1.13	0.686	0.705	0.622	0.686	0.645	0.974	0.915	0.776	0.748	0.664	0.987	1.07	0.993	0.859	0.842
SK-LU-1	0.223	0.189	0.218	0.201	0.225	0.66	0.638	0.699	0.53	0.552	0.172	0.138	0.18	0.142	0.189	0.993	0.879	0.852	0.575	0.66
SK-MES-1	0.863	0.865	0.724	0.616	0.788	0.367	0.415	0.373	0.329	0.311	0.33	0.301	0.394	0.247	0.364	0.92	0.808	1.03	0.666	0.619
SW 1573	0.341	0.257	0.218	0.196	0.214	0.539	0.582	0.664	0.446	0.59	0.515	0.593	0.523	0.565	0.279	0.917	0.866	0.88	0.867	1.02
UMC-11	1.18	1.35	1.1	1.16	1.14	0.657	0.57	0.585	0.602	0.597	0.633	0.598	0.647	0.541	0.473	1.19	1.15	1.26	1.13	1.06
